Test results: patent US20070027033A1, “Anti-germination method of tubers or bulbs using eugenol and/or isoeugenol” (priority 2005, published 2007)

Tested on: germination and nascent sprouts of potatoes
Test: Post-storage application to washed potatoes, in line or by immersion, compared with CIPC and other essential oils
Format: in vivo, potato
Conditions: emulsifiable liquid solution applied in line to washed potatoes or by immersion in dilute aqueous solution, after storage, at ambient temperature

Structure (SMILES): C=CCc1ccc(O)c(OC)c1 [eugenol]
- prevention of germination and burning of nascent sprouts: more effectively than the CIPC-based formulation or other essential oils
